Results from patent US20100227859A1, “TRICYCLIC COMPOUNDS AS MATRIX METALLOPROTEINASE INHIBITORS” (priority 2007, published 2010).

target: purified human MMP-12 enzyme (Homo sapiens, UniProt P39900); test: MMP-12 FRET assay; format: biochemical; conditions: substrate 20 μM, room temperature
Procedure, shortened: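 Initial fluorescence rate (325/395 nm) of cleavage of MCA-Pro-Leu-Gly-Leu-Dpa(DNP)-Ala-Arg, 20 μM final, was followed for 30 min at room temperature after a 30 min enzyme–compound preincubation. Buffer: 50 mM HEPES pH 7.4, 100 mM NaCl, 5 mM CaCl2, 0.005% Brij-35, with 10% final DMSO. IC50 came from a Hill-type fit of rate versus inhibitor concentration.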

Chain of purified human MMP-12 enzyme (P39900 106-470): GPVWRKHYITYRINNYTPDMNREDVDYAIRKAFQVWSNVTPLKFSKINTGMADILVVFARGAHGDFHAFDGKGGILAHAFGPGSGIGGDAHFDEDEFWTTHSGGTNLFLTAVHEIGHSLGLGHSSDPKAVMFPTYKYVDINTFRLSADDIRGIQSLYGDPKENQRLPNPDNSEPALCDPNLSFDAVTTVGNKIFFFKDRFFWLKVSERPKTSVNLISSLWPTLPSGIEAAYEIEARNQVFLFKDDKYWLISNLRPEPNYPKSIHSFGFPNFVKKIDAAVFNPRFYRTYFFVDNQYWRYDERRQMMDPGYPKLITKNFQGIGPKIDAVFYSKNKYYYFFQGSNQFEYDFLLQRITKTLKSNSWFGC

| SMILES | IC50 [nM] |
| --- | --- |
| CC(C)[C@H](NS(=O)(=O)c1ccc2c(c1)sc1ccc(-c3ccc[nH]3)cc12)C(=O)O [Compound 57, (S)-2-(8-(1H-pyrrol-2-yl)dibenzo[b,d]thiophene-3-sulfonamido)-3-methylbutanoic acid] | 21 |
| COC(=O)C#Cc1ccc2oc3cc(S(=O)(=O)N[C@H](C(=O)O)C(C)C)ccc3c2c1 [Compound 6, (S)-2-(8-(3-methoxy-3-oxoprop-1-ynyl)dibenzo[b,d]furan-3-sulfonamido)-3-methylbutanoic acid] | 30.4 |
| Cc1nc(-c2ccccc2)sc1-c1ccc2oc3cc(S(=O)(=O)N[C@H](C(=O)O)C(C)C)ccc3c2c1 [Compound 163, (S)-3-methyl-2-(8-(4-methyl-2-phenylthiazol-5-yl)dibenzo[b,d]furan-3-sulfonamido)butanoic acid] | 170 |
| CC(C)[C@H](NS(=O)(=O)c1ccc2c(c1)oc1ccc(C3=NCCS3)cc12)C(=O)O [Compound 107, (S)-2-(8-(4,5-dihydrothiazol-2-yl)dibenzo[b,d]furan-3-sulfonamido)-3-methylbutanoic acid] | 21 |
| CC(C)[C@H](NS(=O)(=O)c1ccc2c(c1)oc1cc(-c3nccs3)ccc12)C(=O)O [Compound 137, (S)-3-methyl-2-(7-(thiazol-2-yl)dibenzo[b,d]furan-3-sulfonamido)butanoic acid] | 11 |
| CCN=C(NCC)c1ccc2oc3cc(S(=O)(=O)N[C@H](C(=O)O)C(C)C)ccc3c2c1 [Compound 109, (S)-2-(8-(N,N′-diethylcarbamimidoyl)dibenzo[b,d]furan-3-sulfonamido)-3-methylbutanoic acid] | 640 |
| CC(C)[C@H](NS(=O)(=O)c1ccc2c(c1)oc1ccc(-c3noc(CC(C)(C)C)n3)cc12)C(=O)O [Compound 261, (S)-3-methyl-2-(8-(5-neopentyl-1,2,4-oxadiazol-3-yl)dibenzo[b,d]furan-3-sulfonamido)butanoic acid] | 5.4 |
| CC(C)[C@@H](NS(=O)(=O)c1ccc2oc3cc(-c4nc5ccc(F)cc5s4)ccc3c2c1)C(=O)O [Compound 297, (R)-2-(7-(6-fluorobenzo[d]thiazol-2-yl)dibenzo[b,d]furan-2-sulfonamido)-3-methylbutanoic acid] | 2.2 |
| CC(C)[C@@H](NS(=O)(=O)c1ccc2c(c1)sc1cc(-c3ccccc3)ccc12)C(=O)O [Compound 314, (R)-3-methyl-2-(7-phenyldibenzo[b,d]thiophene-3-sulfonamido)butanoic acid] | 2.6 |
| CC(C)[C@@H](NS(=O)(=O)c1ccc2oc3cc(-c4cc5cc(F)ccc5[nH]4)ccc3c2c1)C(=O)O [Compound 122, (R)-2-(7-(5-fluoro-1H-indol-2-yl)dibenzo[b,d]furan-2-sulfonamido)-3-methylbutanoic acid] | 6.9 |
| CC(C)[C@@H](NS(=O)(=O)c1ccc2oc3cc(-c4ccc(Cl)nc4)ccc3c2c1)C(=O)O [Compound 101, (R)-2-(7-(6-chloropyridin-3-yl)dibenzo[b,d]furan-2-sulfonamido)-3-methylbutanoic acid] | 5.1 |
| CC(C)[C@H](NS(=O)(=O)c1ccc2c(c1)oc1ccc(-c3noc(-c4ccc(C(F)(F)F)cc4)n3)cc12)C(=O)O [Compound 271, (S)-3-methyl-2-(8-(5-(4-(trifluoromethyl)phenyl)-1,2,4-oxadiazol-3-yl)dibenzo[b,d]furan-3-sulfonamido)butanoic acid] | 3.7 |
| Cc1cc(-c2ccc3oc4cc(S(=O)(=O)N[C@H](C(=O)O)C(C)C)ccc4c3c2)c(C)s1 [Compound 89, (S)-2-(8-(2,5-dimethylthiophen-3-yl)dibenzo[b,d]furan-3-sulfonamido)-3-methylbutanoic acid] | 2.5 |
| CC(C)[C@@H](NS(=O)(=O)c1ccc2oc3cc(-c4cc5ccccc5o4)ccc3c2c1)C(=O)O [Compound 119, (R)-2-(7-(benzofuran-2-yl)dibenzo[b,d]furan-2-sulfonamido)-3-methylbutanoic acid] | 8.3 |
| CC(C)[C@H](NS(=O)(=O)c1ccc2oc3cc(-c4ccc(C(C)(C)C)o4)ccc3c2c1)C(=O)O [Compound 241, (S)-2-(7-(5-tert-butylfuran-2-yl)dibenzo[b,d]furan-2-sulfonamido)-3-methylbutanoic acid] | 170 |
| CC(C)[C@H](NS(=O)(=O)c1ccc2c(c1)sc1ccc(/C=C/C3CCCCC3)cc12)C(=O)O [Compound 58, (S,E)-2-(8-(2-cyclohexylvinyl)dibenzo[b,d]thiophene-3-sulfonamido)-3-methylbutanoic acid] | 18 |
| CC(C)[C@@H](NS(=O)(=O)c1ccc2oc3cc(-c4ccc(Br)s4)ccc3c2c1)C(=O)O [Compound 144, (R)-2-(7-(5-bromothiophen-2-yl)dibenzo[b,d]furan-2-sulfonamido)-3-methylbutanoic acid] | 2.2 |
| Cc1ccc(-c2ccc3c(c2)oc2cc(S(=O)(=O)N[C@H](C(=O)O)C(C)C)ccc23)s1 [Compound 142, (S)-3-methyl-2-(7-(5-methylthiophen-2-yl)dibenzo[b,d]furan-3-sulfonamido)butanoic acid] | 2.5 |
| CC(C)(C)c1nc(-c2ccc3c(c2)oc2ccc(S(=O)(=O)N[C@H](C(=O)O)C(C)(C)C)cc23)no1 [Compound 282, (S)-2-(7-(5-tert-butyl-1,2,4-oxadiazol-3-yl)dibenzo[b,d]furan-2-sulfonamido)-3,3-dimethylbutanoic acid] | 150 |
| Cc1csc(-c2ccc3sc4cc(S(=O)(=O)N[C@H](C(=O)O)C(C)C)ccc4c3c2)c1 [Compound 62, (S)-3-methyl-2-(8-(4-methylthiophen-2-yl)dibenzo[b,d]thiophene-3-sulfonamido)butanoic acid] | 44 |
| CCNC(=N)c1ccc2oc3cc(S(=O)(=O)N[C@H](C(=O)O)C(C)C)ccc3c2c1 [Compound 128, (S)-2-(8-(N-ethylcarbamimidoyl)dibenzo[b,d]furan-3-sulfonamido)-3-methylbutanoic acid] | 73 |
| COc1cccc2sc(-c3ccc4oc5cc(S(=O)(=O)N[C@H](C(=O)O)C(C)C)ccc5c4c3)nc12 [Compound 223, (S)-2-(8-(4-methoxybenzo[d]thiazol-2-yl)dibenzo[b,d]furan-3-sulfonamido)-3-methylbutanoic acid] | 13 |

These reach a lower IC50. Values come first.

| IC50 [nM] | SMILES |
| --- | --- |
| < 1.5 | CC(C)[C@H](NS(=O)(=O)c1ccc2c(c1)oc1ccc(-c3noc(-c4cccs4)n3)cc12)C(=O)O [Compound 264, (S)-3-methyl-2-(8-(5-(thiophen-2-yl)-1,2,4-oxadiazol-3-yl)dibenzo[b,d]furan-3-sulfonamido)butanoic acid] |
| < 1.5 | Cc1nc(C)c(-c2ccc3oc4cc(S(=O)(=O)N[C@H](C(=O)O)C(C)C)ccc4c3c2)s1 [Compound 201, (S)-2-(8-(2,4-dimethylthiazol-5-yl)dibenzo[b,d]furan-3-sulfonamido)-3-methylbutanoic acid] |
| < 1.5 | CC(C)[C@H](NS(=O)(=O)c1ccc2c(c1)sc1cc(-c3ccoc3)ccc12)C(=O)O [Compound 60, (S)-2-(7-(furan-3-yl)dibenzo[b,d]thiophene-3-sulfonamido)-3-methylbutanoic acid] |
| < 1.5 | CC(C)[C@H](NS(=O)(=O)c1ccc2c(c1)oc1ccc(-c3csc4ccccc34)cc12)C(=O)O [Compound 12, (S)-2-(8-(benzo[b]thiophen-3-yl)dibenzo[b,d]furan-3-sulfonamido)-3-methylbutanoic acid] |
| < 1.5 | CC(C)[C@H](NS(=O)(=O)c1ccc2c(c1)oc1cc(-c3ccoc3)ccc12)C(=O)O [Compound 79, (S)-2-(7-(furan-3-yl)dibenzo[b,d]furan-3-sulfonamido)-3-methylbutanoic acid] |
| < 1.5 | CC(C)[C@H](NS(=O)(=O)c1ccc2c(c1)oc1ccc(-c3ccc4c(c3)OCO4)cc12)C(=O)O [Compound 308, (S)-2-(8-(benzo[d][1,3]dioxol-5-yl)dibenzo[b,d]furan-3-sulfonamido)-3-methylbutanoic acid] |
| < 1.5 | CC(C)[C@H](NS(=O)(=O)c1ccc2c(c1)sc1cc(-c3ccccc3)ccc12)C(=O)O [Compound 313, (S)-3-methyl-2-(7-phenyldibenzo[b,d]thiophene-3-sulfonamido)butanoic acid] |
| < 1.5 | Cc1nc(-c2ccc(-c3ccc4oc5cc(S(=O)(=O)N[C@H](C(=O)O)C(C)C)ccc5c4c3)s2)no1 [Compound 199, (S)-3-methyl-2-(8-(5-(5-methyl-1,2,4-oxadiazol-3-yl)thiophen-2-yl)dibenzo[b,d]furan-3-sulfonamido)butanoic acid] |
| < 1.5 | CC(C)[C@H](NS(=O)(=O)c1ccc2c(c1)oc1cc(-c3nc4ccc(F)cc4s3)ccc12)C(=O)O [Compound 237, (S)-2-(7-(6-fluorobenzo[d]thiazol-2-yl)dibenzo[b,d]furan-3-sulfonamido)-3-methylbutanoic acid] |
| < 1.5 | COc1ccc(-c2ccc3c(c2)oc2ccc(S(=O)(=O)N[C@@H](C(=O)O)C(C)C)cc23)cn1 [Compound 102, (R)-2-(7-(6-methoxypyridin-3-yl)dibenzo[b,d]furan-2-sulfonamido)-3-methylbutanoic acid] |
| < 1.5 | CC(C)[C@H](NS(=O)(=O)c1ccc2c(c1)oc1ccc(-c3nc4cc(F)c(F)cc4s3)cc12)C(=O)O [Compound 220, (S)-2-(8-(5,6-difluorobenzo[d]thiazol-2-yl)dibenzo[b,d]furan-3-sulfonamido)-3-methylbutanoic acid] |
| < 1.5 | CC(C)[C@H](NS(=O)(=O)c1ccc2c(c1)oc1ccc(-c3ccsc3)cc12)C(=O)O [Compound 28, (S)-3-methyl-2-(8-(thiophen-3-yl)dibenzo[b,d]furan-3-sulfonamido)butanoic acid] |
| 1.1 | CC(C)[C@H](NS(=O)(=O)c1ccc2c(c1)oc1cc(-c3cc4ccccc4o3)ccc12)C(=O)O [Compound 143, (S)-2-(7-(benzofuran-2-yl)dibenzo[b,d]furan-3-sulfonamido)-3-methylbutanoic acid] |
